Assay results reported in ChEMBL document CHEMBL4689842, “EUbOPEN Chemogenomics Library wave 1” (2021).

Legend:
Type in all cases: toxicity, cell-based
U2OS = assay: Incucyte cell viability with U2OS; details: human, 10 µM, compound concentration 10 uM
HEK-293T = assay: Incucyte cell viability with HEK293T; details: human, 10 µM, compound concentration 10 uM
Fibroblast = assay: Incucyte cell viability with human fibroblast; details: 10 µM, compound concentration 10 uM
[1] = 0 h, replicate number 1, timepoint 0 hours
[2] = 12 h, replicate number 1, timepoint 12 hours
[3] = 18 h, replicate number 1, timepoint 18 hours
[4] = 18 h, replicate number 2, timepoint 18 hours
[5] = 24 h, replicate number 1, timepoint 24 hours
[6] = 24 h, replicate number 2, timepoint 24 hours
[7] = 6 h, replicate number 1, timepoint 6 hours
[8] = 0 h, replicate number 2, timepoint 0 hours
Also: filed as whole numbers so only -1 and 0 and 1 occur.

Compound	Growth Rate (U2OS; [1])	Growth Rate (U2OS; [2])	Growth Rate (U2OS; [3])	Growth Rate (U2OS; [5])	Growth Rate (HEK-293T; [1])	Growth Rate (HEK-293T; [7])	Growth Rate (HEK-293T; [2])	Growth Rate (HEK-293T; [3])	Growth Rate (HEK-293T; [5])	Growth Rate (Fibroblast; [1])	Growth Rate (Fibroblast; [7])	Growth Rate (Fibroblast; [2])	Growth Rate (Fibroblast; [3])	Growth Rate (Fibroblast; [5])	Growth Rate (U2OS; [7])	Growth Rate (Fibroblast; [8])	Growth Rate (Fibroblast; [6])	also measured
CC(C)OC(=O)C1=CN(C(=O)c2ccc(F)c(F)c2)CC(C)(C)c2c1[nH]c1ccccc21 [TUROFEXORATE ISOPROPYL]	0	0	0	0	0	0	0	0	0	0	0	0	0	0	–	–	–	Growth Rate (U2OS; [4]): 1; Growth Rate (U2OS; [6]): 1
Cc1ccc2nc(CNCCCOc3ccccc3)cc(O)c2c1 [UCSF924]	0	0	0	0	0	0	0	0	0	–	0	0	0	0	0	1	–	Growth Rate (HEK-293T; [8]): 1; Growth Rate (Fibroblast; 6 h, replicate number 2, timepoint 6 hours): 1
CNC(=O)c1ccccc1Nc1cc(Nc2ccc(N3CCOCC3)cc2OC)ncc1C(F)(F)F [VS-4718]	1	0	0	0	–	0	0	0	0	0	–	–	1	0	0	–	1	Growth Rate (U2OS; [8]): 0
C=CC(=O)N1CCC([C@@H]2CCNc3c(C(N)=O)c(-c4ccc(Oc5ccccc5)cc4)nn32)CC1 [ZANUBRUTINIB]	0	0	0	0	0	–	0	0	0	1	0	0	0	0	0	0	1	Growth Rate (Fibroblast; [4]): 1
